Laboratory results published in patent US8143212B2 (Vicuron Pharmaceuticals Inc., priority 2002, dated 2012).
In brackets after ≈: the same amount, converted by molar mass.

How the values were obtained:
Format in all cases: cell-based
[1] = system: gram positive bacteria; assay: MIC by broth microdilution (NCCLS), with or without 30% bovine serum (Table 42)
Description: (§1) Before dissolution, each sample was analyzed by HPLC and quantified.
(§2) The microorganisms used were reference strains obtained from the American Type Culture Collection (ATCC) (Rockville, Md.), SmithKline and French Laboratories (SKF), and the Upjohn Company (UC) (Kalamazoo, Mich.).
(§3) MICs were determined by the broth microdilution methodology following the standard NCCLS procedure (NCCLS Document M7-A6, Vol. 23, No. 2, “Methods for dilution antimicrobial susceptibility tests for bacteria that grow aerobically.” Approved Guideline. January 2003, which can be herein incorporated by reference in its entirety), with or without 30% adult bovine serum (BS) (PAA Laboratories GMBH, Haidmannweg Pasching Austria), using bacterial innocula at approximately 5×10^5 CFU/ml. The media employed included cation-adjusted Müller Hinton broth (Difco Laboratories, Detroit, Mich.) that was used that was adjusted with CaCl2 and MgCl2 to a final concentration of 20 mg/L and 10 mg/L, respectively. Tests were read following 20-24 hours of incubation at 35° C.

[2] = system: gram-negative bacteria; assay: MIC by broth microdilution (NCCLS) (Table 42)
Description: as §1, §2, §3

[3] = system: Candida albicans SKF 2270; assay: MIC by broth microdilution (NCCLS) (Tables 42, 44)
[4] = system: panel of gram-positive bacteria; assay: MIC by broth microdilution (NCCLS) of IsoB0 and reference compounds (Table 44)
Description: Müller Hinton broth (Difco Laboratories, Detroit, Mich., USA) adjusted with CaCl2 and MgCl2 to a final concentrations of 20 mg/L and 10 mg/L respectively.
The microorganisms used are reference standard strains from the American Type Culture Collection (ATCC, Rockville, USA), Smith Kline and French Laboratories (SKF) and the Upjohn Company (UC, Kalamazoo, Mich., USA).
(§4) MICs were determined by the broth microdilution methodology following the standard NCCLS procedure, with or without 30% bovine serum, using bacterial inocula of approximately 5×10^5 CFU/mL. Tests were read after 20-24 h incubation at 35° C.

[5] = system: Escherichia coli, Proteus vulgaris, Pseudomonas aeruginosas; assay: MIC by broth microdilution (NCCLS) of IsoB0 and reference compounds (Table 44), non-gram-positive bacterial strains
Description: as §4

[6] = E. faecalis ATCC29212 ref. strain
[7] = Enterococcus faecalis ATCC 7080
[8] = S. aureus ATCC 29213 ref. strain
[9] = Staphylococcus aureus Smith ATCC 19636
[10] = Streptococcus pyrogenes SKF 13400
[11] = Pseudomonas aeruginosas ATCC 10145
[12] = Candida albicans SKF 2270 (Table 42)
[13] = Streptococcus pyogenes SKF13400
[14] = Candida albicans SKF2270 (Table 44)

SMILES	MIC ([1]; Bacillus subtilis ATCC 6633)	MIC [1, 6]	MIC [1, 7] [µg/mL]	MIC [1, 8] [µg/mL]	MIC ([1]; S. aureus Smith + 30% BS) [µg/mL]	MIC ([1]; S. epidermidis ATCC 12228)	MIC ([1]; S. pneumoniae Felton UC41)	MIC [1, 9] [µg/mL]	MIC [1, 10]	MIC ([2]; E. coli ATCC25922 ref. strain) [µg/mL]	MIC ([2]; Escherichia coli SKF 12140) [µg/mL]	MIC ([2]; Proteus vulgaris ATCC 881) [µg/mL]	MIC [2, 11] [µg/mL]	MIC [3, 12] [µg/mL]	MIC ([4]; Bacillus subtilis ATCC 6633)	MIC [4, 6] [µg/mL]	MIC [4, 7] [µg/mL]	MIC [4, 8] [µg/mL]	MIC ([4]; S. aureus Smith + 30% BS) [µg/mL]	MIC ([4]; S. epidermidis ATCC 12228) [µg/mL]	further results
CN[C@H]1C(=O)N[C@@H]2Cc3ccc(cc3)Oc3cc4cc(c3O[C@@H]3O[C@H](C(=O)O)[C@@H](O)[C@H](O)[C@H]3NC(=O)CCCCCCCC(C)C)Oc3ccc(cc3Cl)[C@@H](O)[C@@H]3NC(=O)[C@H](NC(=O)[C@@H]4NC(=O)[C@@H](NC2=O)c2cc(cc(O)c2Cl)Oc2cc1ccc2O)c1ccc(O)c(c1)-c1c(O[C@H]2O[C@H](CO)[C@@H](O)[C@H](O)[C@@H]2O)cc(O)cc1[C@@H](C(=O)NCCCN(C)C)NC3=O [Composition A0]	≦0.06 mg/L	≦0.06 mg/L	0.125 (≈ 0.0693 µM)	0.125 (≈ 0.0693 µM)	1	0.125 µg/mL (≈ 0.0693 µM)	0.125 µg/mL (≈ 0.0693 µM)	0.125 (≈ 0.0693 µM)	0.015 µg/mL (≈ 0.00832 µM)	>64	>64	>64	>64	>64	–	–	–	–	–	–	–
CN[C@H]1C(=O)N[C@@H]2Cc3ccc(cc3)Oc3cc4cc(c3O[C@@H]3O[C@H](C(=O)O)[C@@H](O)[C@H](O)[C@H]3NC(=O)CCCCCCCCC(C)C)Oc3ccc(cc3Cl)[C@@H](O)[C@@H]3NC(=O)[C@H](NC(=O)[C@@H]4NC(=O)[C@H](NC2=O)c2cc(cc(O)c2Cl)Oc2cc1ccc2O)c1ccc(O)c(c1)-c1c(O[C@H]2O[C@H](CO)[C@@H](O)[C@H](O)[C@@H]2O)cc(O)cc1[C@@H](C(=O)NCCCN(C)C)NC3=O [isoB0]	–	–	–	–	–	–	–	–	–	–	–	–	–	–	≦0.06 mg/L	0.25 (≈ 0.138 µM)	0.25 (≈ 0.138 µM)	0.25 (≈ 0.138 µM)	16	0.125 (≈ 0.0688 µM)	activity against a panel of gram-positive bacteria [4]: very similar to dalbavancin; MIC ([4]; S. pneumoniae Felton UC41): 0.125 µg/mL (≈ 0.0688 µM); MIC [4, 9]: 0.5 µg/mL (≈ 0.275 µM); MIC [4, 13]: 0.06 µg/mL (≈ 0.033 µM); MIC [3, 14]: >64 µg/mL; MIC ([5]; E. coli ATCC25922 ref. strain): 64 µg/mL (≈ 35.2 µM); MIC ([5]; Escherichia coli SKF 12140): 64 µg/mL (≈ 35.2 µM); MIC ([5]; Proteus vulgaris ATCC 881): >64 µg/mL; MIC [5, 11]: >64 µg/mL
CC1(C)S[C@@H]2[C@H](NC(=O)Cc3ccccc3)C(=O)N2[C@H]1C(=O)O [Penicillin G]	≦0.03 mg/L	4 µg/mL (≈ 12 µM)	32 (≈ 95.7 µM)	8 (≈ 23.9 µM)	0.06	>32 µg/mL	≦0.03 mg/L	0.06 (≈ 0.179 µM)	≦0.03 mg/L	>32	>32	>32	>32	>32	–	–	–	–	–	–	–
CC(C)CCCCCCCCC(=O)N[C@H]1[C@H](Oc2c3cc4cc2Oc2ccc(cc2Cl)[C@@H](O)[C@@H]2NC(=O)[C@H](NC(=O)[C@@H]4NC(=O)[C@H]4NC(=O)[C@@H](Cc5ccc(cc5)O3)NC(=O)[C@H](N(C)C)c3ccc(O)c(c3)Oc3cc(O)c(Cl)c4c3)c3ccc(O)c(c3)-c3c(O[C@H]4O[C@H](CO)[C@@H](O)[C@H](O)[C@@H]4O)cc(O)cc3[C@@H](C(=O)NCCCN(C)C)NC2=O)O[C@H](C(=O)O)[C@@H](O)[C@@H]1O [Composition B2, N^15,N^15-dimethyl dalbavancin B0]	–	–	–	–	–	–	–	–	–	–	–	–	–	–	–	–	–	–	–	–	activity across the range of gram-positive bacteria [1]: comparable to or greater than the activity of B0; MIC range ([2]; representative panel of gram-negative bacteria): 16 to 32 µg/mL
C[C@@H]1[C@H](O)[C@@H](C)/C=C/C=C/C=C/C=C/C=C/C=C/C=C/[C@H](O[C@@H]2O[C@H](C)[C@@H](O)[C@H](N)[C@@H]2O)C[C@@H]2O[C@](O)(C[C@@H](O)C[C@@H](O)[C@H](O)CC[C@@H](O)C[C@@H](O)CC(=O)O[C@H]1C)C[C@H](O)[C@H]2C(=O)O [Amphotericin B]	>64 µg/mL	>64 µg/mL	>64	>64	>64	>64 µg/mL	>64 µg/mL	>64	32 µg/mL (≈ 34.6 µM)	>64	>64	>64	>64	0.125 (≈ 0.135 µM)	–	–	–	–	–	–	–
C[C@@H]1[C@H](O)[C@@H](C)/C=C/C=C/C=C/C=C/C=C/C=C/C=C/[C@H](O[C@@H]2O[C@H](C)[C@@H](O)[C@H](N)[C@@H]2O)C[C@@H]2O[C@](O)(C[C@@H](O)C[C@@H](O)[C@H](O)CC[C@@H](O)C[C@@H](O)CC(=O)O[C@H]1C)C[C@H](O)[C@H]2C(=O)O [Amph. B]	–	–	–	–	–	–	–	–	–	–	–	–	–	–	>64 µg/mL	>64	>64	>64	>64	>64	MIC ([4]; S. pneumoniae Felton UC41): >64 µg/mL; MIC [4, 9]: >64 µg/mL; MIC [4, 13]: 32 µg/mL (≈ 34.6 µM); MIC [3, 14]: 0.125 µg/mL (≈ 0.135 µM); MIC ([5]; E. coli ATCC25922 ref. strain): >64 µg/mL; MIC ([5]; Escherichia coli SKF 12140): >64 µg/mL; MIC ([5]; Proteus vulgaris ATCC 881): >64 µg/mL; MIC [5, 11]: >64 µg/mL
CC1(C)S[C@@H]2[C@H](NC(=O)Cc3ccccc3)C(=O)N2[C@H]1C(=O)O [Pen. G]	–	–	–	–	–	–	–	–	–	–	–	–	–	–	≦0.03 mg/L	4 (≈ 12 µM)	32 (≈ 95.7 µM)	8 (≈ 23.9 µM)	0.06	>32	MIC ([4]; S. pneumoniae Felton UC41): ≦0.03 mg/L; MIC [4, 9]: 0.06 µg/mL (≈ 0.179 µM); MIC [4, 13]: ≦0.03 mg/L; MIC [3, 14]: >32 µg/mL; MIC ([5]; E. coli ATCC25922 ref. strain): >32 µg/mL; MIC ([5]; Escherichia coli SKF 12140): >32 µg/mL; MIC ([5]; Proteus vulgaris ATCC 881): >32 µg/mL; MIC [5, 11]: >32 µg/mL
CCCCCCCCCCCC(=O)N[C@H]1[C@H](Oc2c3cc4cc2Oc2ccc(cc2Cl)[C@@H](O)[C@@H]2NC(=O)[C@H](NC(=O)[C@@H]4NC(=O)[C@H]4NC(=O)[C@@H](Cc5ccc(cc5)O3)NC(=O)[C@H](NC)c3ccc(O)c(c3)Oc3cc(O)c(Cl)c4c3)c3ccc(O)c(c3)-c3c(O[C@H]4O[C@H](CO)[C@@H](O)[C@H](O)[C@@H]4O)cc(O)cc3[C@@H](C(=O)NCCCN(C)C)NC2=O)O[C@H](C(=O)O)[C@@H](O)[C@@H]1O [Composition B1]	≦0.06 mg/L	0.125 µg/mL (≈ 0.0688 µM)	0.125 (≈ 0.0688 µM)	0.125 (≈ 0.0688 µM)	2	≦0.06 mg/L	≦0.06 mg/L	0.125 (≈ 0.0688 µM)	≦0.06 mg/L	>64	>64	>64	>64	>64	–	–	–	–	–	–	–
CN[C@H]1C(=O)N[C@@H]2Cc3ccc(cc3)Oc3cc4cc(c3O[C@@H]3O[C@H](C(=O)O)[C@@H](O)[C@H](O)[C@H]3NC(=O)CCCCCCCCC(C)C)Oc3ccc(cc3Cl)[C@@H](O)[C@@H]3NC(=O)[C@H](NC(=O)[C@@H]4NC(=O)[C@@H](NC2=O)c2cc(cc(O)c2Cl)Oc2cc1ccc2O)c1ccc(O)c(c1)-c1c(O[C@H]2O[C@H](CO)[C@@H](O)[C@H](O)[C@@H]2O)cc(O)cc1[C@@H](C(=O)NCCCN(C)C)NC3=O [Composition B0, ristomycin A aglycone, 5,31-dichloro-38-de(methoxycarbonyl)-7-demethyl-19-deoxy-56-O-(2-deoxy-2-((10-methyl-1-oxoundecyl)amino)-beta-D-glucopyranuronosyl)-38-(((3-(dimethylamino)propyl)amino)-carbonyl)-42-O-alpha-D-mannopyranosyl-N^15-methyl-]	≦0.06 mg/L	0.125 µg/mL (≈ 0.0688 µM)	0.125 (≈ 0.0688 µM)	0.125 (≈ 0.0688 µM)	2	≦0.06 mg/L	≦0.06 mg/L	0.25 (≈ 0.138 µM)	≦0.06 mg/L	>64	>64	>64	>64	>64	–	–	–	–	–	–	–
